# According to US20110038948A1, “Methods of Reducing the Production of Reactive Oxygen Species and Methods of Screening or Identifying Compounds and Compositions that Reduce the Production of Reactive Oxygen Species” (UNIVERSITY OF TENNESSEE RESEARCH FOUNDATION, priority 2005, published 2011):
# Columns and labels:
# adiponectin = test: Adiponectin expression in 3T3-L1 adipocytes; format: cell-based, mouse; settings: 48 h
# Procedure: 3T3-L1 pre-adipocytes were incubated at a density of 8000 cells/cm^2 (10 cm^2 dish) and grown in Dulbecco's modified Eagle's medium (DMEM) containing 10% FBS and antibiotics (adipocyte medium) at 37° C. in 5% CO2 in air. Confluent pre-adipocytes were induced to differentiate with a standard differentiation medium consisting of DMEM-F10 (1:1, vol/vol) medium supplemented with 1% fetal bovine serum (FBS), 1 μM dexamethasone, isobutylmethylxanthine (IBMX) (0.5 mM) and antibiotics (1% Penicillin-Streptomycin). Pre-adipocytes were maintained in this differentiation medium for 3 days and subsequently cultured in adipocyte medium. Cultures were re-fed every 2-3 days to allow 90% cells to reach fully differentiation before conducting chemical treatment. […] Cell viability was measured via trypan blue exclusion. Adipocyte and muscle 18s, TNFα, IL-6, IL-8, IL-15 and adiponectin were quantitatively measured using a smart cycler real-time PCR system (Cepheid, Sunnyvale, Calif.) with a TaqMan 1000 Core Reagent Kit (Applied Biosystems, Branchburg, N.J.). […] Reactions of quantitative RT-PCR for standards and unknown samples were also performed according to the instructions of Smart Cycler System (Cepheid, Sunnyvale, Calif.) and TaqMan Real Time PCR Core Kit (Applied Biosystems, Branchburg, N.J.). The mRNA quantitation for each sample was further normalized using the corresponding 18s quantitation.
# 3T3-L1 adipocytes [1] = test: Mitochondrial membrane potential (JC-1); format: cell-based, mouse; settings: H2O2 100 nmol/L, 48 hours
# Procedure: 3T3-L1 preadipocytes were incubated at a density of 8000 cells/cm^2 (10 cm^2 dish) and grown in Dulbecco's modified Eagle's medium (DMEM) containing 10% FBS and antibiotics (adipocyte medium) at 37° C. in 5% CO2 in air. Confluent preadipocytes were induced to differentiate with a standard differentiation medium consisting of DMEM-F10 (1:1, vol/vol) medium supplemented with 1% FBS, 1 μM dexamethasone, IBMX (0.5 mM) and antibiotics (1% Penicillin-Streptomycin). Preadipocytes were maintained in this differentiation medium for 3 days and subsequently cultured in adipocyte medium. Cultures were re-fed every 2-3 days to allow 90% of cells to reach full differentiation before conducting chemical treatment. Chemicals were freshly diluted in adipocyte medium before treatment. […] Cell viability was measured via trypan blue exclusion.
# Mitochondrial membrane potential was analyzed fluorometrically with a lipophilic cationic dye JC-1 (5,5′,6,6′-tetrachloro-1,1′,3,3′-tetraethylbenzimidazol carbocyanine iodide) using a mitochondrial potential detection kit (Biocarta, San Diego, Calif.). Mitochondrial potential was determined as the ratio of red fluorescence (excitation 550 nm, emission 600 nm) and green fluorescence (excitation 485 nm, emission 535 nm) using a fluorescence microplate reader.
# C2C12 myotubes [2] = test: Fatty acid oxidation (palmitate oxidation) in muscle cells; format: cell-based, murine; settings: calcitriol 10 nM, 48 hours; p<0.05
# Procedure: FIG. 53: Fatty acid oxidation was determined via palmitate oxidation. […] Data are corrected for DNA content. Values are presented as mean±SEM, n=6. Means with different letter differ with p<0.05.
# The adipose tissue-skeletal muscle endocrine axis may play a potential role in regulating metabolic energy partitioning. […] While both calcium and dairy accelerate adipose tissue loss, dairy exerts a substantially greater effect and exerts a protective effect on lean tissue during hypocaloric diets. We have shown that dietary calcium modulation of adiposity is mediated, in part, by suppression of calcitriol, while the additional effect of dairy is mediated by additional bioactive components; these include the high concentration of leucine, a key factor in the regulation of muscle protein turnover. […] However, the effect of leucine and calcium, in regulating this process is unclear. Accordingly, present study was designed to investigate the effect of leucine, calcitriol and calcium on energy metabolism in murine adipocytes and muscle cells. Leucine induced a 41% increase in fatty acid oxidation in C2C12 muscle cells (p<0.001) and decreased fatty acid synthase gene expression by 66% (p<0.001) in 3T3-L1 adipocytes. Calcitriol decreased muscle cell fatty acid oxidation by 17% (p<0.05) and increased adipocyte FAS gene expression by 3-fold (p<0.05).
# 3T3-L1 adipocytes [3] = test: Cytokine antibody array of culture medium; format: cell-based, mouse
# Procedure: RAW 264 macrophages and 3T3-L1 preadipocytes (American Type Culture Collection) were incubated at a density of 8000 cells/cm2 (10 cm2 dish) and grown in Dulbecco's modified Eagle's medium (DMEM) containing 10% FBS and antibiotics (adipocyte medium) at 37° C. in 5% CO2 in air. Confluent 3T3-L1 preadipocytes were induced to differentiate with a standard differentiation medium consisting of DMEM-F10 (1:1, vol/vol) medium supplemented with 1% FBS, 1 μM dexamethasone, IBMX (0.5 mM) and antibiotics (1% Penicillin-Streptomycin). Preadipocytes were maintained in this differentiation medium for 3 days and subsequently cultured in adipocyte medium. Cultures were re-fed every 2-3 days to allow 90% cells to reach fully differentiation for 3T3-L1 adipocytes or grow to a confluence for RAW 264 before conducting chemical treatment.
# Human adipocytes (Zen-Bio, Inc.), 3T3-L1 adipocytes, RAW264 macrophages were obtained and co-cultured by using transwell inserts with 0.4 μm porous membranes (Corning) to separate adipocytes and macrophages. All data are expressed as mean±SEM. Data were evaluated for statistical significance by analysis of one-way or two-way variance (ANOVA; means with different letter differ, p<0.05).
# A TansSignal™ mouse cytokine antibody array kit (Panomics, Fremont, Calif.) was used to detect cytokine protein released in culture medium according to the manufacture's instruction. […]
# C2C12 myotubes [4] = test: IL-15 release by myotubes (ELISA); format: cell-based, murine; settings: C2C12 myotubes, 48 hours
# Procedure: IL-15 release in the medium was determined using ELISA. Data are corrected for DNA content. Values are presented as mean±SEM, n=6. Means with different letter differ with p<0.05.
Compound,effect on adiponectin production (adiponectin),increase in mitochondrial potential (3T3-L1 adipocytes [1]) [%],decrease in muscle cell fatty acid oxidation (C2C12 myotubes [2]) [%],inflammatory cytokine production (3T3-L1 adipocytes [3]; co-culture of 3T3-L1 adipocytes with macrophages),production of multiple inflammatory cytokine proteins (3T3-L1 adipocytes [3]; differentiated 3T3-L1 adipocytes cultured alone),effect on IL-15 release (C2C12 myotubes [4])
"OO [H2O2, hydrogen peroxide]",without significant effect,72,–,–,–,–
"C=C1/C(=C\C=C2/CCC[C@]3(C)[C@@H]([C@H](C)CCCC(C)(C)O)CC[C@@H]23)C[C@@H](O)C[C@@H]1O [calcitriol, 1,25-(OH)2-D3]",–,–,17,further stimulated,up-regulated,inhibitory effects
